Data taken from patent US20210009542A1 (Calico Life Sciences LLC, priority 2018, published 2021).
Like-named read-outs stand apart in the source and are kept apart here.

Tests used:
[1] = test system: B16F10 mouse melanoma cells; assay: B16F10 IFNγ-induced cellular growth inhibition assay; type: cell-based; settings: Mus musculus, B16-F10, 33 μM compound
Outline: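 Live-cell imaging of confluence every 6 h over 5 days at 37 °C tracked growth of mouse B16F10 melanoma cells seeded overnight at 500/well. Semi-log compound series (final 100–0.001 μM, 0.1% DMSO) ran in both arms, ±IFNγ at 0.5 ng/mL final; inhibition taken relative to DMSO plus IFNγ when IFNγ-free DMSO wells passed 95% confluence.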

[2] = molecular target: T1, His tagged PTPN2 (TC45) protein (Homo sapiens, UniProt P17706); assay: Mobility shift assay (MSA) for potency of PTPN2 inhibitors; type: biochemical; settings: read-out: PTPN2 MSA IC50
T1 construct: made in house
T1 sequence (P17706 with tags, fused parts or gaps isoform P17706-2): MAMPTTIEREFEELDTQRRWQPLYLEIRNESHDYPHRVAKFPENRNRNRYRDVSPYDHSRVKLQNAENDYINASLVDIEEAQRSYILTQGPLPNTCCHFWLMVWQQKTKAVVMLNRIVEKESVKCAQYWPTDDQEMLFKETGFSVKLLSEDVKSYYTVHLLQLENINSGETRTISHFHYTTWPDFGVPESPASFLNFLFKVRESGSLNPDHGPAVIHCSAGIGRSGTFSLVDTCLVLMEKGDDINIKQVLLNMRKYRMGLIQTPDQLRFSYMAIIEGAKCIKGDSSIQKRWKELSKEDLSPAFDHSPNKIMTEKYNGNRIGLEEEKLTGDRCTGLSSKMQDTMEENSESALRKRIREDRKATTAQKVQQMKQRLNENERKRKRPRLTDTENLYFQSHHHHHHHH
Outline: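 IC50 values were derived from % inhibition of substrate conversion, measured by microfluidic mobility shift (ex 488/em 530) after quenching. The fluorescent phosphotyrosine insulin-receptor peptide ([…]) reacted for 10 min at room temperature with 0.5 nM His-tagged TC45 PTPN2 that had been preincubated 10 min with compound (12 points, 1:3). Buffer was HEPES pH 7.5 with EGTA, EDTA, Tween 20 and DTT.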

[3] = molecular target: T2, His tagged full-length PTP1B protein (Homo sapiens, UniProt P18031); assay: Mobility shift assay (MSA) for potency of PTP1B inhibitors; type: biochemical
T2 construct: made in house
T2 sequence (P18031 with tags, fused parts or gaps): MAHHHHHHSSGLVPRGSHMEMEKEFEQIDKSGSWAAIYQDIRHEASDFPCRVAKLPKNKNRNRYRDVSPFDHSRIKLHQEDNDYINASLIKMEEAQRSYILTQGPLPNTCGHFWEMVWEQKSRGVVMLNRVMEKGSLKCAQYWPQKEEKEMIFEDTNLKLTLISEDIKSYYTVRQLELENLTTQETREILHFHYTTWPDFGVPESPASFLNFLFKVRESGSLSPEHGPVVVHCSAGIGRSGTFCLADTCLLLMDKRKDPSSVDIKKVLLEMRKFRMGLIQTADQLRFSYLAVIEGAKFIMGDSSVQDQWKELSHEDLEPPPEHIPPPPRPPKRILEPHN
Method: The enzymatic assay used to determine activity is a mobility shift assay using a LabChip EZ Reader by Caliper Life Sciences. The enzymatic reaction was carried out in assay buffer (50 mM HEPES pH 7.5, 1 mM EGTA, 10 mM EDTA, 0.01% Tween® 20, and 2 mM DTT). […] The enzyme (at 0.5 nM) was incubated with compound for 10 minutes at room temperature. […] The % inhibition was then used to calculate the IC50 values.

[4] = +0.5 ng/mL IFNγ, relative to DMSO control, read-out: % B16F10 growth inhibition (+0.5 ng/mL IFNγ) @ 33 μM
[5] = no IFNγ, read-out: % B16F10 growth inhibition (no IFNγ) @ 33 μM

SMILES	inhibition at 33 µM [1, 4]	inhibition at 33 µM [1, 5]	IC50 [2]	IC50 [3]
O=C1CN(c2c(O)cc3ccc(OCC4CCCO4)cc3c2F)S(=O)(=O)N1 (centres unmarked) [Compound 254, 5-{1-fluoro-3-hydroxy-7-[(oxolan-2-yl)methoxy]naphthalen-2-yl}-1λ^6,2,5-thiadiazolidine-1,1,3-trione]	60 to 90%	< 25%	1 to 10 nM	> 100 nM
O=C1CN(c2c(O)cc3ccc(C4CCOC4)cc3c2F)S(=O)(=O)N1 (centres unmarked) [Compound 255, 5-[1-fluoro-3-hydroxy-7-(oxolan-3-yl)naphthalen-2-yl]-1λ^6,2,5-thiadiazolidine-1,1,3-trione]	60 to 90%	< 25%	1 to 10 nM	> 100 nM
CS(=O)(=O)N1CCC(F)(COc2ccc3cc(O)c(N4CC(=O)NS4(=O)=O)c(F)c3c2)C1 (centres unmarked) [Compound 307, 5-(1-fluoro-7-{[3-fluoro-1-(methanesulfonyl)pyrrolidin-3-yl]methoxy}-3-hydroxynaphthalen-2-yl)-1λ^6,2,5-thiadiazolidine-1,1,3-trione]	25 to 59%	< 25%	1 to 10 nM	1 to 10 nM
CC[C@H]1C[C@@H]1COc1ccc2cc(O)c(N3CC(=O)NS3(=O)=O)c(F)c2c1 (racemic) [Compound 218, 5-(7-{[rac-(1R,2R)-2-ethylcyclopropyl]methoxy}-1-fluoro-3-hydroxynaphthalen-2-yl)-1λ^6,2,5-thiadiazolidine-1,1,3-trione]	25 to 59%	< 25%	1 to 10 nM	1 to 10 nM
CC(C)N1CCC(F)(COc2ccc3cc(O)c(N4CC(=O)NS4(=O)=O)c(F)c3c2)C1 (centres unmarked) [Compound 109, 5-(1-fluoro-7-{[3-fluoro-1-(propan-2-yl)pyrrolidin-3-yl]methoxy}-3-hydroxynaphthalen-2-yl)-1λ^6,2,5-thiadiazolidine-1,1,3-trione]	< 25%	< 25%	1 to 10 nM	10 to 100 nM
O=C1CN(c2c(O)cc3ccc(C4=CCOC4)cc3c2F)S(=O)(=O)N1 [Compound 263, 5-[7-(2,5-dihydrofuran-3-yl)-1-fluoro-3-hydroxynaphthalen-2-yl]-1λ^6,2,5-thiadiazolidine-1,1,3-trione]	60 to 90%	< 25%	< 1 nM	> 100 nM
O=C1CN(c2c(O)cc3ccc(OCC(O)C4CC4)cc3c2F)S(=O)(=O)N1 (centres unmarked) [Compound 150, 5-[7-(2-cyclopropyl-2-hydroxyethoxy)-1-fluoro-3-hydroxynaphthalen-2-yl]-1λ^6,2,5-thiadiazolidine-1,1,3-trione]	> 90%	< 25%	1 to 10 nM	1 to 10 nM
O=C1CN(c2c(O)cc3ccc(NC4CCN(S(=O)(=O)C5CC5)C4)cc3c2F)S(=O)(=O)N1 (centres unmarked) [Compound 306, 5-(7-{[1-(cyclopropanesulfonyl)pyrrolidin-3-yl]amino}-1-fluoro-3-hydroxynaphthalen-2-yl)-1λ^6,2,5-thiadiazolidine-1,1,3-trione]	60 to 90%	< 25%	1 to 10 nM	10 to 100 nM
O=C1CN(c2c(O)cc3ccc(OCCC4CC4(F)F)cc3c2F)S(=O)(=O)N1 (centres unmarked) [Compound 192, 5-{7-[2-(2,2-difluorocyclopropyl)ethoxy]-1-fluoro-3-hydroxynaphthalen-2-yl}-1λ^6,2,5-thiadiazolidine-1,1,3-trione]	60 to 90%	< 25%	< 1 nM	< 1 nM
O=C1CN(c2c(O)cc3ccc(OCCC4CCNCC4)cc3c2F)S(=O)(=O)N1 [Compound 108, 5-{1-fluoro-3-hydroxy-7-[2-(piperidin-4-yl)ethoxy]naphthalen-2-yl}-1λ^6,2,5-thiadiazolidine-1,1,3-trione]	25 to 59%	< 25%	1 to 10 nM	1 to 10 nM
O=C1CN(c2c(O)cc3ccc(C4CCNC4)cc3c2F)S(=O)(=O)N1 (centres unmarked) [Compound 102, 5-[1-fluoro-3-hydroxy-7-(pyrrolidin-3-yl)naphthalen-2-yl]-1λ^6,2,5-thiadiazolidine-1,1,3-trione]	60 to 90%	< 25%	1 to 10 nM	10 to 100 nM
CC(O)CCOc1ccc2cc(O)c(N3CC(=O)NS3(=O)=O)c(F)c2c1 (centres unmarked) [Compound 156, 5-[1-fluoro-3-hydroxy-7-(3-hydroxybutoxy)naphthalen-2-yl]-1λ^6,2,5-thiadiazolidine-1,1,3-trione]	60 to 90%	< 25%	< 1 nM	1 to 10 nM
O=C1CN(c2c(O)cc3ccc(CC4CCN(S(=O)(=O)C5CC5)C4)cc3c2F)S(=O)(=O)N1 (centres unmarked) [Compound 261, 5-(7-{[1-(cyclopropanesulfonyl)pyrrolidin-3-yl]methyl}-1-fluoro-3-hydroxynaphthalen-2-yl)-1λ^6,2,5-thiadiazolidine-1,1,3-trione]	25 to 59%	< 25%	1 to 10 nM	1 to 10 nM
O=C1CN(c2c(O)cc3ccc(OCC4CCCOC4)cc3c2F)S(=O)(=O)N1 (centres unmarked) [Compound 271, 5-{1-fluoro-3-hydroxy-7-[(oxan-3-yl)methoxy]naphthalen-2-yl}-1λ^6,2,5-thiadiazolidine-1,1,3-trione]	60 to 90%	< 25%	< 1 nM	> 100 nM
CN(C)CCOc1ccc2cc(O)c(N3CC(=O)NS3(=O)=O)c(F)c2c1 [Compound 131, 5-{7-[2-(dimethylamino)ethoxy]-1-fluoro-3-hydroxynaphthalen-2-yl}-1λ^6,2,5-thiadiazolidine-1,1,3-trione]	> 90%	< 25%	1 to 10 nM	10 to 100 nM
CS(=O)(=O)N1CCC(Nc2ccc3cc(O)c(N4CC(=O)NS4(=O)=O)c(F)c3c2)C1 (centres unmarked) [Compound 126, 5-(1-fluoro-3-hydroxy-7-{[1-(methanesulfonyl)pyrrolidin-3-yl]amino}naphthalen-2-yl)-1λ^6,2,5-thiadiazolidine-1,1,3-trione]	60 to 90%	< 25%	1 to 10 nM	1 to 10 nM
O=C1CN(c2c(O)cc3ccc(OCCC4CCCO4)cc3c2F)S(=O)(=O)N1 (centres unmarked) [Compound 213, 5-{1-fluoro-3-hydroxy-7-[2-(oxolan-2-yl)ethoxy]naphthalen-2-yl}-1λ^6,2,5-thiadiazolidine-1,1,3-trione]	60 to 90%	< 25%	< 1 nM	1 to 10 nM
O=C1CN(c2c(O)cc3ccc(OCC4CC4(F)F)cc3c2F)S(=O)(=O)N1 (centres unmarked) [Compound 210, 5-{7-[(2,2-difluorocyclopropyl)methoxy]-1-fluoro-3-hydroxynaphthalen-2-yl}-1λ^6,2,5-thiadiazolidine-1,1,3-trione]	> 90%	< 25%	< 1 nM	1 to 10 nM
O=C1CN(c2c(O)cc3ccc(CC4CCCN(S(=O)(=O)C5CC5)C4)cc3c2F)S(=O)(=O)N1 (centres unmarked) [Compound 259, 5-(7-{[1-(cyclopropanesulfonyl)piperidin-3-yl]methyl}-1-fluoro-3-hydroxynaphthalen-2-yl)-1λ^6,2,5-thiadiazolidine-1,1,3-trione]	< 25%	< 25%	1 to 10 nM	1 to 10 nM
O=C1CN(c2c(O)cc3ccc(C4CCN(S(=O)(=O)C5CC5)C4)cc3c2F)S(=O)(=O)N1 (centres unmarked) [Compound 101, 5-{7-[1-(cyclopropanesulfonyl)pyrrolidin-3-yl]-1-fluoro-3-hydroxynaphthalen-2-yl}-1λ^6,2,5-thiadiazolidine-1,1,3-trione]	60 to 90%	< 25%	< 1 nM	1 to 10 nM
